Measured values from article PMC8138313, “Identification, Selection and Immune Assessment of Liver Stage CD8 T Cell Epitopes From Plasmodium falciparum” (Frontiers in Immunology, 2021).
pIC50: −log10 of the molar value. Where a SMILES comes first, the peptide text is derived from it.

Assays:
Assay in all cases: HLA class I binding assay (cell-free competition, fluorescence polarization)
[1] = biological target: HLA B*4402 (Homo sapiens, UniProt P01889, A223V/A65T/A93T/A95T/D201E/D98Y/E176V/E187L/E204Q/E69K/G107R/H137Y/K202T/L105A/L119I/N104T/N87E/Q56L/Q94N/R106L/R155S/R180D/S101N/S121R/S35A/S48T/T118I/V36M/W191S/Y140D/Y91S)
[2] = biological target: HLA A*2402 (Homo sapiens, UniProt P04439, D101N/D140Y/D185E/E176V/E190D/F33S/G103R/G107R/I119L/I121M/I306V/K335N/L105A/L180Q/L300P/N151K/N90K/Q86E/Q94H/R106L/R138H/R89G/T104I/T345S/V100E/W191G/Y123F)
[3] = biological target: HLA A*0201 (Homo sapiens, UniProt P04439, D140Y/D185E/D98H/E176V/E277Q/G131W/G231S/I119V/I121R/I166T/I218V/L300P/L318F/N151K/N90K/P208A/P217A/Q86G/Q94H/R138H/R169H/T345S)

SMILES	pIC50 [1]	pIC50 [2]	pIC50 [3]
CC[C@H](C)[C@H](NC(=O)[C@H](CC(C)C)NC(=O)[C@H](CC(=O)O)NC(=O)[C@H](CC(N)=O)NC(=O)[C@H](CCCNC(=N)N)NC(=O)[C@H](CO)NC(=O)[C@@H](NC(=O)[C@H](CCC(=O)O)NC(=O)[C@H](C)N)[C@@H](C)CC)C(=O)O (H-AEISRNDLI-OH)	5.34		
CC[C@H](C)[C@H](NC(=O)[C@H](CCC(N)=O)NC(=O)[C@@H](NC(=O)[C@H](C)NC(=O)[C@H](CCCCN)NC(=O)[C@H](CC(C)C)NC(=O)[C@H](CC(N)=O)NC(=O)[C@H](CCC(=O)O)NC(=O)[C@@H](N)CC(=O)O)[C@@H](C)CC)C(=O)O (H-DENLKAIQI-OH)	4.04		
CC(C)C[C@H](NC(=O)[C@H](CC(N)=O)NC(=O)[C@H](CCC(=O)O)NC(=O)[C@@H](N)CCC(=O)O)C(=O)N[C@@H](Cc1ccccc1)C(=O)N[C@@H](CCC(=O)O)C(=O)N[C@@H](Cc1c[nH]c2ccccc12)C(=O)N[C@@H](CO)C(=O)N[C@@H](CCCCN)C(=O)N[C@H](C(=O)O)[C@@H](C)O (H-EENLFEWSKT-OH; N-terminus assumed)	< 3.00		
CC[C@H](C)[C@H](N)C(=O)N[C@@H](CCC(=O)O)C(=O)N[C@@H](CC(N)=O)C(=O)N[C@@H](CC(N)=O)C(=O)N[C@@H](CC(C)C)C(=O)N[C@@H](Cc1ccc(O)cc1)C(=O)N[C@@H](CCC(=O)O)C(=O)N[C@@H](CCCNC(=N)N)C(=O)N[C@@H](CC(C)C)C(=O)O (H-IENNLYERL-OH)	4.22		
CC[C@H](C)[C@H](N)C(=O)N[C@@H](Cc1ccc(O)cc1)C(=O)NCC(=O)N[C@@H](CCCCN)C(=O)NCC(=O)NCC(=O)N[C@@H](Cc1ccccc1)C(=O)N[C@@H](CCC(N)=O)C(=O)N[C@@H](Cc1ccccc1)C(=O)O (H-IYGKGGFQF-OH)		6.79	
CC[C@H](C)[C@H](NC(=O)[C@H](CCC(=O)O)NC(=O)[C@H](CCCCN)NC(=O)[C@H](CCC(=O)O)NC(=O)[C@H](CCC(=O)O)NC(=O)[C@@H](N)CCCCN)C(=O)N[C@@H](CC(N)=O)C(=O)N[C@@H](CC(=O)O)C(=O)N[C@@H](CCC(=O)O)C(=O)N[C@@H](Cc1ccc(O)cc1)C(=O)O (H-KEEKEINDEY-OH; N-terminus assumed)	< 3.00		
CC[C@H](C)[C@H](NC(=O)[C@@H](NC(=O)[C@@H](NC(=O)[C@H](Cc1c[nH]cn1)NC(=O)[C@H](CC(=O)O)NC(=O)[C@H](CCCCN)NC(=O)[C@H](CCCCN)NC(=O)[C@H](CCC(=O)O)NC(=O)[C@@H](N)CCCCN)[C@@H](C)CC)C(C)C)C(=O)O (H-KEKKDHIVI-OH)	4.19		
CC[C@H](C)[C@H](NC(=O)[C@H](CCC(=O)O)NC(=O)[C@H](CC(N)=O)NC(=O)[C@H](CC(C)C)NC(=O)[C@H](CC(C)C)NC(=O)[C@@H]1CCCN1C(=O)[C@@H]1CCCN1C(=O)[C@H](CC(C)C)NC(=O)[C@@H](N)CCCCN)C(=O)O (H-KLPPLLNEI-OH)		7.05	5.57
CC[C@H](C)[C@H](NC(=O)[C@@H]1CCCN1C(=O)[C@H](Cc1ccc(O)cc1)NC(=O)[C@H](CCC(N)=O)NC(=O)[C@H](CC(=O)O)NC(=O)[C@H](CO)NC(=O)[C@H](CCCCN)NC(=O)[C@H](CCSC)NC(=O)[C@@H](N)CCCCN)C(=O)O (H-KMKSDQYPI-OH)		5.16	5.51
CC[C@H](C)[C@H](NC(=O)[C@H](CCCNC(=N)N)NC(=O)[C@@H]1CCCN1C(=O)[C@H](CC(=O)O)NC(=O)[C@H](Cc1ccc(O)cc1)NC(=O)[C@@H](N)CCCCN)C(=O)N[C@@H](CO)C(=O)NCC(=O)N[C@@H](Cc1c[nH]c2ccccc12)C(=O)O (H-KYDPRISGW-OH)		5.30	
CC(C)C[C@H](N)C(=O)N[C@@H](Cc1ccccc1)C(=O)NCC(=O)N[C@@H](CC(=O)O)C(=O)N[C@@H](CCC(=O)O)C(=O)N[C@@H](CC(N)=O)C(=O)N[C@@H](Cc1ccccc1)C(=O)N[C@@H](CO)C(=O)N[C@@H](Cc1ccccc1)C(=O)O (H-LFGDENFSF-OH)		5.23	
CC[C@H](C)[C@H](NC(=O)[C@H](Cc1ccccc1)NC(=O)[C@H](CCC(=O)O)NC(=O)[C@@H](NC(=O)[C@H](CC(=O)O)NC(=O)[C@H](CCC(=O)O)NC(=O)[C@H](CC(N)=O)NC(=O)[C@H](CCC(=O)O)NC(=O)[C@@H](N)CCSC)C(C)C)C(=O)O (H-MENEDVEFI-OH)	4.43		
CSCC[C@H](N)C(=O)N[C@@H](Cc1ccc(O)cc1)C(=O)N[C@@H](Cc1c[nH]cn1)C(=O)N[C@@H](CC(N)=O)C(=O)N[C@@H](CCCCN)C(=O)N[C@@H](CCC(=O)O)C(=O)N[C@@H](Cc1ccccc1)C(=O)N[C@@H](CC(=O)O)C(=O)N[C@@H](Cc1ccccc1)C(=O)O (H-MYHNKEFDF-OH)		5.35	
CC[C@H](C)[C@H](NC(=O)[C@H](CCC(=O)O)NC(=O)[C@H](CCC(=O)O)NC(=O)[C@@H](N)CC(N)=O)C(=O)N[C@H](C(=O)N[C@@H](CC(=O)O)C(=O)N[C@@H](CC(C)C)C(=O)N[C@@H](CC(C)C)C(=O)N[C@@H](CC(N)=O)C(=O)N[C@@H](CC(C)C)C(=O)O)[C@@H](C)CC (H-NEEIIDLLNL-OH)	3.36		
C[C@@H](O)[C@H](NC(=O)[C@H](CC(N)=O)NC(=O)[C@H](CC(N)=O)NC(=O)[C@H](CCC(=O)O)NC(=O)[C@@H](N)CC(N)=O)C(=O)N[C@H](C(=O)N[C@@H](Cc1ccc(O)cc1)C(=O)N[C@@H](CCC(N)=O)C(=O)N[C@@H](Cc1ccc(O)cc1)C(=O)O)[C@@H](C)O (H-NENNTTYQY-OH)	4.74		
CSCC[C@H](NC(=O)[C@@H](N)CC(N)=O)C(=O)N[C@@H](CC(N)=O)C(=O)N[C@@H](Cc1ccc(O)cc1)C(=O)N[C@@H](CCCCN)C(=O)N[C@@H](CCC(N)=O)C(=O)N[C@@H](CC(N)=O)C(=O)N[C@@H](CC(N)=O)C(=O)N[C@@H](Cc1ccccc1)C(=O)O (H-NMNYKQNNF-OH)		4.83	
NCCCC[C@H](NC(=O)[C@H](Cc1ccc(O)cc1)NC(=O)[C@@H](N)CC(N)=O)C(=O)N[C@@H](CCC(N)=O)C(=O)N[C@@H](CC(N)=O)C(=O)N[C@@H](CC(N)=O)C(=O)N[C@@H](Cc1ccccc1)C(=O)N1CCC[C@H]1C(=O)N[C@@H](Cc1ccccc1)C(=O)O (H-NYKQNNFPF-OH)		5.02	
CC[C@H](C)[C@H](NC(=O)[C@H](CC(N)=O)NC(=O)[C@H](Cc1ccc(O)cc1)NC(=O)[C@H](CCC(N)=O)NC(=O)[C@H](CC(=O)O)NC(=O)[C@H](CC(N)=O)NC(=O)[C@H](CC(N)=O)NC(=O)[C@H](Cc1ccc(O)cc1)NC(=O)[C@@H](N)CC(N)=O)C(=O)O (H-NYNNDQYNI-OH)		5.18	
CC(C)C[C@H](NC(=O)[C@H](Cc1ccccc1)NC(=O)[C@@H]1CCCN1)C(=O)N[C@@H](CCCCN)C(=O)N[C@@H](CO)C(=O)NCC(=O)N[C@@H](Cc1ccccc1)C(=O)N[C@H](C(=O)N[C@@H](Cc1ccccc1)C(=O)O)[C@@H](C)O (H-PFLKSGFTF-OH)		5.08	
C[C@@H](O)[C@H](NC(=O)[C@H](CC(N)=O)NC(=O)[C@H](Cc1ccc(O)cc1)NC(=O)[C@@H](NC(=O)[C@H](CO)NC(=O)[C@@H](NC(=O)[C@H](CO)NC(=O)[C@H](CCC(=O)O)NC(=O)[C@@H](N)CO)[C@@H](C)O)[C@@H](C)O)C(=O)O (H-SESTSTYNT-OH)	3.99		
N=C(N)NCCC[C@H](NC(=O)[C@H](Cc1ccc(O)cc1)NC(=O)[C@H](CCCCN)NC(=O)[C@@H]1CCCN1C(=O)[C@H](Cc1c[nH]cn1)NC(=O)[C@@H](N)CO)C(=O)N[C@@H](CC(N)=O)C(=O)N[C@@H](Cc1ccccc1)C(=O)N[C@@H](CCCCN)C(=O)N[C@@H](Cc1ccccc1)C(=O)O (H-SHPKYRNFKF-OH)		4.78	
CC[C@H](C)[C@H](NC(=O)[C@H](CC(C)C)NC(=O)[C@@H](NC(=O)[C@@H](N)CO)[C@@H](C)CC)C(=O)N[C@@H](CO)C(=O)N[C@@H](CCCNC(=N)N)C(=O)N[C@@H](CC(C)C)C(=O)N[C@H](C(=O)N[C@@H](CC(C)C)C(=O)O)[C@@H](C)O (H-SILISRLTL-OH; N-terminus assumed)	< 3.00		
CC[C@H](C)[C@H](NC(=O)[C@H](CO)NC(=O)[C@H](Cc1ccc(O)cc1)NC(=O)[C@@H](N)[C@@H](C)O)C(=O)N[C@@H](Cc1ccc(O)cc1)C(=O)N[C@H](C(=O)N[C@@H](CC(N)=O)C(=O)N[C@@H](Cc1ccccc1)C(=O)N[C@@H](CCCCN)C(=O)N[C@@H](CC(N)=O)C(=O)O)[C@@H](C)O (H-TYSIYTNFKN-OH)		4.58	
C[C@@H](O)[C@H](NC(=O)[C@H](Cc1ccc(O)cc1)NC(=O)[C@H](CCCCN)NC(=O)[C@H](Cc1ccc(O)cc1)NC(=O)[C@@H](N)Cc1c[nH]c2ccccc12)C(=O)N[C@@H](CCC(=O)O)C(=O)N[C@@H](CO)C(=O)N[C@@H](CC(=O)O)C(=O)N[C@@H](Cc1ccccc1)C(=O)O (H-WYKYTESDF-OH)		5.60	
CC(C)[C@H](NC(=O)[C@H](Cc1ccccc1)NC(=O)[C@H](CCC(N)=O)NC(=O)[C@H](Cc1ccccc1)NC(=O)CNC(=O)CNC(=O)[C@H](CCCCN)NC(=O)CNC(=O)[C@@H](N)Cc1ccc(O)cc1)C(=O)N[C@@H](Cc1ccccc1)C(=O)O (H-YGKGGFQFVF-OH)		6.64	
CC[C@H](C)[C@H](NC(=O)[C@H](Cc1ccc(O)cc1)NC(=O)[C@@H]1CCCN1C(=O)[C@@H]1CCCN1C(=O)[C@H](CC(C)C)NC(=O)CNC(=O)[C@@H](NC(=O)[C@@H](NC(=O)[C@@H](N)Cc1ccc(O)cc1)[C@@H](C)O)[C@@H](C)CC)C(=O)O (H-YTIGLPPYI-OH)		5.18	5.61
CC[C@H](C)[C@H](NC(=O)[C@@H](NC(=O)[C@@H]1CCCN1C(=O)[C@H](Cc1ccc(O)cc1)NC(=O)[C@@H](N)Cc1ccc(O)cc1)[C@@H](C)CC)C(=O)N[C@@H](CCCNC(=N)N)C(=O)N[C@@H](CCCCN)C(=O)N[C@@H](CCC(N)=O)C(=O)N[C@@H](Cc1ccccc1)C(=O)O (H-YYPIIRKQF-OH)		7.00	
